From the OligoGym collection
HELM strings list units from the 5' end as sugar, base in round brackets, then linkage (d deoxyribose, r ribose, m 2'-O-methyl, p phosphodiester). Strings are as the collection lists them; they lack the last nucleoside at the 3' end of the tested compound. [moe] = 2'-O-(2-methoxyethyl) (MOE); [sp] = phosphorothioate linkage; [m5C] = 5-methylcytosine

Target: UBE3A-ATS
Experiment: mouse, dose not given
Conditions: ASO

“RNA1{[moe](A)[sp].[moe](G)p.[moe]([m5C])p.[moe]([m5C])p.[moe](A)p.d(G)[sp].d(G)[sp].d(T)[sp].d(G)[sp].d(T)[sp].d([m5C])[sp].d(T)[sp].d(T)[sp].d(A)[sp].d(T)[sp].[moe](A)p.[moe](T)p.[moe]([m5C])[sp].[moe](T)}$$$$ (last 3' nucleoside missing)” showed a 3 h FOB score of 2.3 score 0-7.

Substance “RNA1{[moe](A)[sp].[moe](G)p.[moe]([m5C])p.[moe]([m5C])p.d(A)[sp].d(G)[sp].d(G)[sp].d(T)[sp].d(G)[sp].d(T)[sp].d([m5C])[sp].d(T)[sp].d(T)[sp].d(A)[sp].[moe](T)p.[moe](A)p.[moe](T)p.[moe]([m5C])[sp].[moe](T)}$$$$ (last 3' nucleoside missing)” has a 3 h FOB score of 4 score 0-7.

Work on “RNA1{[moe](A)[sp].[moe](T)[sp].[moe]([m5C])[sp].[moe](A)[sp].[moe](T)[sp].d(G)[sp].d(T)[sp].d(G)[sp].d([m5C])[sp].d(A)[sp].d(T)[sp].d(A)[sp].d([m5C])[sp].d([m5C])[sp].d([m5C])[sp].[moe](A)[sp].[moe](G)[sp].[moe](G)[sp].[moe](G)}$$$$ (last 3' nucleoside missing)” yielded a 3 h FOB score of 5.2 score 0-7.

“RNA1{[moe](A)[sp].[moe](T)p.[moe](A)p.[moe](G)p.[moe]([m5C])p.d([m5C])[sp].d([m5C])[sp].d(T)[sp].d(T)[sp].d(T)[sp].d([m5C])[sp].d(A)[sp].d(G)[sp].d([m5C])[sp].d(A)[sp].[moe]([m5C])p.[moe](A)p.[moe]([m5C])[sp].[moe](T)}$$$$ (last 3' nucleoside missing)” gave a 3 h FOB score of 3.5 score 0-7.

With “RNA1{[moe](A)[sp].[moe](T)p.[moe](G)p.[moe](A)p.[moe](T)p.d([m5C])[sp].d(A)[sp].d(T)[sp].d(A)[sp].d([m5C])[sp].d(T)[sp].d(G)[sp].d(G)[sp].d(A)[sp].d(G)[sp].[moe]([m5C])p.[moe]([m5C])p.[moe](A)[sp].[moe](G)}$$$$ (last 3' nucleoside missing)” the 3 h FOB score was 5.8 score 0-7.

Substance “RNA1{[moe](A)[sp].[moe](T)p.[moe](G)p.[moe](A)p.[moe]([m5C])p.d(A)[sp].d(T)[sp].d(A)[sp].d(A)[sp].d([m5C])[sp].d([m5C])[sp].d(A)[sp].d(T)[sp].d(A)[sp].d(T)[sp].[moe](A)p.[moe]([m5C])p.[moe](A)[sp].[moe](A)}$$$$ (last 3' nucleoside missing)” has a 3 h FOB score of 0 score 0-7.

With “RNA1{[moe](A)[sp].[moe](T)p.[moe](G)p.[moe](G)p.[moe](G)p.d(A)[sp].d(G)[sp].d([m5C])[sp].d(T)[sp].d([m5C])[sp].d(T)[sp].d(G)[sp].d(G)[sp].d(A)[sp].d(A)[sp].[moe](A)p.[moe](A)p.[moe]([m5C])[sp].[moe](A)}$$$$ (last 3' nucleoside missing)” the 3 h FOB score was 4 score 0-7.

“RNA1{[moe](A)[sp].[moe](T)p.[moe](G)p.[moe](T)p.[moe](A)p.d(T)[sp].d([m5C])[sp].d(A)[sp].d(G)[sp].d(G)[sp].d([m5C])[sp].d(A)[sp].d(A)[sp].d([m5C])[sp].d(A)[sp].[moe](G)p.[moe](A)p.[moe](A)[sp].[moe](T)}$$$$ (last 3' nucleoside missing)” showed a 3 h FOB score of 5 score 0-7.

With “RNA1{[moe](A)[sp].[moe](T)p.[moe](G)p.[moe](T)p.[moe](G)p.[moe]([m5C])p.d(A)[sp].d(T)[sp].d(A)[sp].d([m5C])[sp].d([m5C])[sp].d([m5C])[sp].d(A)[sp].d(G)[sp].d(G)[sp].d(G)[sp].[moe](T)p.[moe](A)[sp].[moe](G)}$$$$ (last 3' nucleoside missing)” the 3 h FOB score was 3.5 score 0-7.

“RNA1{[moe](A)[sp].[moe](T)p.[moe](G)p.[moe](T)p.[moe](G)p.d(G)[sp].d(G)[sp].d([m5C])[sp].d([m5C])[sp].d(T)[sp].d([m5C])[sp].d(T)[sp].d(A)[sp].d(T)[sp].d(T)[sp].[moe](A)p.[moe](A)p.[moe](G)[sp].[moe](A)}$$$$ (last 3' nucleoside missing)” was tested, and the 3 h FOB score was 0.7 score 0-7.

“RNA1{[moe](A)[sp].[moe](T)p.[moe](G)p.[moe](T)p.[moe](G)p.d([m5C])[sp].d(A)[sp].d(T)[sp].d(A)[sp].d([m5C])[sp].d([m5C])[sp].d([m5C])[sp].d(A)[sp].d(G)[sp].d(G)[sp].[moe](G)p.[moe](T)p.[moe](A)[sp].[moe](G)}$$$$ (last 3' nucleoside missing)” was tested, and the 3 h FOB score was 4 score 0-7.

Substance “RNA1{[moe](A)[sp].[moe](T)p.[moe](G)p.[moe](T)p.d(G)[sp].d([m5C])[sp].d(A)[sp].d(T)[sp].d(A)[sp].d([m5C])[sp].d([m5C])[sp].d([m5C])[sp].d(A)[sp].d(G)[sp].[moe](G)p.[moe](G)p.[moe](T)p.[moe](A)[sp].[moe](G)}$$$$ (last 3' nucleoside missing)” has a 3 h FOB score of 1.8 score 0-7.

“RNA1{[moe](A)[sp].[moe](T)p.[moe](T)p.[moe](G)p.[moe](A)p.d([m5C])[sp].d(A)[sp].d([m5C])[sp].d([m5C])[sp].d(T)[sp].d([m5C])[sp].d([m5C])[sp].d(A)[sp].d(A)[sp].d([m5C])[sp].[moe](T)p.[moe](G)p.[moe](T)[sp].[moe](A)}$$$$ (last 3' nucleoside missing)” showed a 3 h FOB score of 0.7 score 0-7.

Substance “RNA1{[moe](A)[sp].[moe](T)p.[moe](T)p.[moe](G)p.[moe](G)p.[moe](T)p.d([m5C])[sp].d(A)[sp].d(T)[sp].d([m5C])[sp].d(T)[sp].d([m5C])[sp].d(G)[sp].d(G)[sp].d(G)[sp].d(T)[sp].[moe](A)p.[moe](T)[sp].[moe](A)}$$$$ (last 3' nucleoside missing)” has a 3 h FOB score of 4 score 0-7.

In the case of “RNA1{[moe](A)[sp].[moe](T)p.[moe](T)p.[moe](G)p.[moe](G)p.d(T)[sp].d([m5C])[sp].d(A)[sp].d(T)[sp].d([m5C])[sp].d(T)[sp].d([m5C])[sp].d(G)[sp].d(G)[sp].d(G)[sp].[moe](T)p.[moe](A)p.[moe](T)[sp].[moe](A)}$$$$ (last 3' nucleoside missing)”, the 3 h FOB score is reported as 2.8 score 0-7.

“RNA1{[moe](A)[sp].[moe](T)p.[moe](T)p.[moe](G)p.[moe](T)p.d([m5C])[sp].d([m5C])[sp].d(T)[sp].d([m5C])[sp].d([m5C])[sp].d(T)[sp].d(G)[sp].d(G)[sp].d(T)[sp].d(A)[sp].[moe](A)p.[moe]([m5C])p.[moe]([m5C])[sp].[moe](A)}$$$$ (last 3' nucleoside missing)” showed a 3 h FOB score of 1.2 score 0-7.

“RNA1{[moe](A)[sp].[moe](T)p.[moe](T)p.[moe](G)p.d(G)[sp].d(T)[sp].d([m5C])[sp].d(A)[sp].d(T)[sp].d([m5C])[sp].d(T)[sp].d([m5C])[sp].d(G)[sp].d(G)[sp].[moe](G)p.[moe](T)p.[moe](A)p.[moe](T)[sp].[moe](A)}$$$$ (last 3' nucleoside missing)” showed a 3 h FOB score of 4 score 0-7.

“RNA1{[moe](A)[sp].[moe](T)p.[moe](T)p.[moe]([m5C])p.[moe](A)p.d(G)[sp].d(A)[sp].d(T)[sp].d(A)[sp].d([m5C])[sp].d(T)[sp].d(A)[sp].d(G)[sp].d(T)[sp].d(T)[sp].[moe](T)p.[moe](A)p.[moe]([m5C])[sp].[moe]([m5C])}$$$$ (last 3' nucleoside missing)” gave a 3 h FOB score of 2.8 score 0-7.

For “RNA1{[moe](A)[sp].[moe](T)p.[moe](T)p.[moe]([m5C])p.[moe](A)p.d(G)[sp].d([m5C])[sp].d(A)[sp].d([m5C])[sp].d(T)[sp].d(T)[sp].d(A)[sp].d(G)[sp].d(G)[sp].d(T)[sp].[moe](A)p.[moe](G)p.[moe](T)[sp].[moe](T)}$$$$ (last 3' nucleoside missing)”, the 3 h FOB score was 3.3 score 0-7.

“RNA1{[moe](A)[sp].[moe](T)p.[moe]([m5C])p.[moe](A)p.[moe](G)p.d(G)[sp].d(G)[sp].d([m5C])[sp].d(A)[sp].d([m5C])[sp].d(A)[sp].d(T)[sp].d(G)[sp].d(G)[sp].d(A)[sp].[moe](G)p.[moe](T)p.[moe](T)[sp].[moe](G)}$$$$ (last 3' nucleoside missing)” showed a 3 h FOB score of 6.8 score 0-7.

Work on “RNA1{[moe](A)[sp].[moe](T)p.[moe]([m5C])p.[moe](A)p.[moe](T)p.d(G)[sp].d(T)[sp].d(G)[sp].d([m5C])[sp].d(A)[sp].d(T)[sp].d(A)[sp].d([m5C])[sp].d([m5C])[sp].d([m5C])[sp].[moe](A)p.[moe](G)p.[moe](G)[sp].[moe](G)}$$$$ (last 3' nucleoside missing)” yielded a 3 h FOB score of 0 score 0-7.

Substance “RNA1{[moe](A)[sp].[moe](T)p.[moe]([m5C])p.[moe](A)p.[moe]([m5C])p.d(A)[sp].d(T)[sp].d(T)[sp].d(A)[sp].d([m5C])[sp].d([m5C])[sp].d([m5C])[sp].d(A)[sp].d(T)[sp].d([m5C])[sp].[moe]([m5C])p.[moe](G)p.[moe](T)[sp].[moe](T)}$$$$ (last 3' nucleoside missing)” has a 3 h FOB score of 0 score 0-7.

With “RNA1{[moe](A)[sp].[moe](T)p.[moe]([m5C])p.[moe](T)p.[moe](G)p.d(G)[sp].d(T)[sp].d([m5C])[sp].d(T)[sp].d(T)[sp].d(G)[sp].d(G)[sp].d(G)[sp].d(A)[sp].d(T)[sp].[moe](T)p.[moe](A)p.[moe](T)[sp].[moe](A)}$$$$ (last 3' nucleoside missing)” the 3 h FOB score was 4.8 score 0-7.

In the case of “RNA1{[moe](A)[sp].[moe](T)p.[moe]([m5C])p.[moe](T)p.[moe]([m5C])p.d(G)[sp].d(G)[sp].d(G)[sp].d(T)[sp].d(A)[sp].d(T)[sp].d(A)[sp].d(T)[sp].d(A)[sp].d(A)[sp].[moe](A)p.[moe](T)p.[moe](T)[sp].[moe](A)}$$$$ (last 3' nucleoside missing)”, the 3 h FOB score is reported as 0 score 0-7.

Work on “RNA1{[moe](A)[sp].[moe]([m5C])[sp].[moe](A)[sp].[moe](T)[sp].[moe](T)[sp].d(T)[sp].d([m5C])[sp].d(T)[sp].d(T)[sp].d(A)[sp].d(G)[sp].d(T)[sp].d(T)[sp].d(G)[sp].d(A)[sp].[moe](A)[sp].[moe]([m5C])[sp].[moe](A)[sp].[moe](G)}$$$$ (last 3' nucleoside missing)” yielded a 3 h FOB score of 6.5 score 0-7.

“RNA1{[moe](A)[sp].[moe]([m5C])p.[moe](A)p.[moe](T)p.[moe](A)p.d([m5C])[sp].d(T)[sp].d(T)[sp].d(G)[sp].d(G)[sp].d(T)[sp].d(T)[sp].d(G)[sp].d([m5C])[sp].d(A)[sp].[moe](G)p.[moe](A)p.[moe]([m5C])[sp].[moe](G)}$$$$ (last 3' nucleoside missing)” showed a 3 h FOB score of 4.8 score 0-7.
